Data from PubChem BioAssay AID2124 (Sanford-Burnham Center for Chemical Genomics, 2009).
Inconclusive results are not listed. Active and inactive are the calls of the source. No rule for the calls is given here; tested in MIN6 cells.

Assay: cell-permeable autofluorescent compounds in GFP channel, dose response, artefact control, imaging, high-content imaging (AID 2124);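 also: cells exposed to compound for 48 hours before fixing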
Conditions: cells, GFP-channel autofluorescence, high-content imaging, at 10 µM; for z-score: stronger effect = higher value

SMILES	z-score	cell count [cells]
CC(=O)C1=C(C)Nc2ncnn2C1c1ccc(Cl)cc1Cl (stereo unspecified)	-0.33 (inactive)	3270
O=S(=O)(Nc1cc2nc3ccccc3nc2n1Cc1ccccc1)c1ccc(Cl)cc1	0.09	777
CCOC(=O)N1CCN(S(=O)(=O)c2ccc3c(c2)oc(=O)n3C)CC1	-0.31 (inactive)	2780
OC(COc1cccc2ccccc12)CN1CCN(c2ccccc2Cl)CC1 (stereo unspecified)	-0.39 (inactive)	3270
CCOc1ccc(-n2c(SCC(=O)NC(C)CC)nc3n[nH]c(C)c3c2=N)cc1 (stereo unspecified)	-0.39 (inactive)	2580
CCOc1ccc(NC(=O)Cn2c(=O)oc3ccccc32)cc1	-0.25 (inactive)	3070
CN(C)S(=O)(=O)Oc1cccc(C(=O)Nc2ccc([N+](=O)[O-])cc2)c1	-0.33 (inactive)	2460
CN1CCN(C(=O)/C(=C\c2cccs2)NC(=O)c2cccs2)CC1	-0.33 (inactive)	3070
CC(NC(=O)/C(C#N)=C1\N=C(NC(=O)c2ccco2)c2ccccc21)c1ccccc1 (stereo unspecified)	-0.32 (inactive)	2760
CCCCN(C)C1=CC2=CC(=C(C#N)C#N)CCC2CC1 (stereo unspecified)	11.3	3120
CNC(=O)C1CC(=O)N/C(=N/N=C(\C)c2cccs2)S1 (stereo unspecified)	-0.38 (inactive)	3440
Cc1ccc(-n2c(O)c(/C=N/NC(=O)C3COc4ccccc4O3)c3ccccc3c2=O)cc1 (stereo unspecified)	-0.25 (inactive)	2870
O=Nc1c(O)n(Cc2ccc(Cl)cc2)c2ccccc12	-0.33 (inactive)	3420
COc1ccccc1NC(=O)COC(=O)C1CC2C=CC1C2 (stereo unspecified)	-0.25 (inactive)	2990
CN(C)C(=O)CN(c1ccc2c(c1)OCO2)S(C)(=O)=O	-0.33 (inactive)	2880
COCCNC(=O)c1onc(CSc2cccc(C)c2)c1C(=O)O	-0.39 (inactive)	3170
CC(C)C(C)(C#N)NC(=O)CSc1nnc(C(F)(F)F)n1C (stereo unspecified)	-0.33 (inactive)	3010
CC(=O)Nc1nc(-c2ccc(Br)s2)cs1	-0.39 (inactive)	3320
Cc1cc(N2C(=O)c3ccccc3C2=O)n(C)n1	-0.39 (inactive)	2960
CC(=O)OC(C(=O)NCc1ccc(F)cc1)c1ccccn1 (stereo unspecified)	-0.39 (inactive)	2840

SMILES	z-score	cell count [cells]
COc1cccc(N2CCN(c3ncccn3)CC2)c1	-0.33 (inactive)	3230
O=C(NCc1cccs1)c1ccc(N2CCCCC2)nc1	-0.33 (inactive)	2760
CCOC(=O)CNC(=O)c1cn(C)c(=O)c2cc(OC)c(OC)cc12	-0.33 (inactive)	3170
COc1ccccc1Nc1nc(Cl)c(C=O)s1	-0.31 (inactive)	2970
N#C/C(=C/c1ccc(N2CCCCC2)o1)C(=O)NCCc1c[nH]c2ccccc12	0.47	3410
COc1ccc(C2/C=C\CN(S(=O)(=O)c3cccc4cccnc34)CC(=O)N2Cc2ccc(F)cc2)cc1 (stereo unspecified)	-0.39 (inactive)	3760
Cc1ccc(-n2c(C)nc3oc4ccccc4c(=O)c3c2=O)cc1	-0.33 (inactive)	3180
COc1ccc(N(C(=O)Cc2cccs2)C2C=CS(=O)(=O)C2)cc1 (stereo unspecified)	-0.39 (inactive)	3350
COC(=O)c1c(NC(=O)CC2Nc3cc(C)c(C)cc3NC2=O)sc(C)c1C (stereo unspecified)	-0.38 (inactive)	3120
N#Cc1nc(N2CCOCC2)nc(N2CCOCC2)n1	-0.39 (inactive)	3120
O=C(Nc1nnc(-c2ccccc2)o1)Nc1ccccc1Cl	-0.39 (inactive)	2750
COCCNC(=O)Cc1ccc(F)cc1	-0.33 (inactive)	2820
C=CCNC(=O)c1c2c(nc3ccccc13)-c1ccccc1CC2	-0.39 (inactive)	3270
N#CC(C#N)=C1C=C2C=C(N3CCCCC3)CCC2CC1 (stereo unspecified)	3	3020
CC(C)OC(=O)CN1C(=O)S/C(=C/c2ccc(N3CCCCC3)o2)C1=O	0.56	2120
CCC(=O)Nc1ccc(C(=O)OCC(=O)c2ccc(C)c([N+](=O)[O-])c2)cc1	-0.33 (inactive)	2960
COc1ccc(C2C(C(=O)N3CCOCC3)CCC(=O)N2c2ccc(OC)cc2)cc1 (stereo unspecified)	-0.26 (inactive)	3020
N#Cc1ccc(-c2ccc(Cl)cc2)nc1SCC(=O)c1cccc(Cl)c1	-0.27 (inactive)	3130
Cc1ccc(CN=Cc2[nH]c3ccc(Br)c(Cl)c3c2O)cc1	-0.33 (inactive)	2930
COc1cccc(S(=O)(=O)NCc2ccc(C(=O)Nc3ccc(Cl)c(Cl)c3)cc2)c1	-0.33 (inactive)	2580

SMILES	z-score	cell count [cells]
Cc1cnc(NC(=O)CN2CCN(c3ccccn3)CC2)s1	-0.39 (inactive)	2360
Cc1cc(=O)oc2cc(OCC(=O)OCC(=O)NC3CC3)ccc12	-0.38 (inactive)	3150
COc1cc(S(=O)(=O)N2CCOCC2)ccc1NC(=O)COC(=O)C12CC3CC(CC(C3)C1)C2	-0.39 (inactive)	3410
COc1ccc(OCCn2cc(/C(N)=N/O)c3ccccc32)cc1	-0.33 (inactive)	2930
O=C1CN(C(=O)COc2ncnc3ccccc23)c2ccccc2N1	-0.38 (inactive)	3020
N#CC(C#N)=C1C=C2C=C(N3CCOCC3)CCC2CC1 (stereo unspecified)	1.21	3080
O=C(NCC1CCCO1)C1CCN(S(=O)(=O)N2CCCC2)CC1 (stereo unspecified)	-0.33 (inactive)	3190
CC1(C)Cc2c(c(-c3ccccc3)[nH]c(=O)c2C#N)CO1	-0.33 (inactive)	3520
CN1CCN(c2ccc(/C=C3\C(=O)NC(=S)N(c4cccc(Br)c4)C3=O)o2)CC1	-0.26 (inactive)	3260
COc1ccc(C(=O)N(CN2CCCC2=O)c2ccc(C)cc2)cc1	-0.33 (inactive)	3380
CCCCNC(=S)NC(=O)c1ccc(Cl)cc1Cl	-0.39 (inactive)	3500
O=C(NCc1cn2ccccc2n1)c1ccco1	-0.33 (inactive)	3100
Cn1c(=O)n(C)c2cc(NC(=O)COc3ccc(Cl)cc3)ccc21	-0.33 (inactive)	3010
O=C(Nc1ccon1)c1cccc(S(=O)(=O)N2CCCCC2)c1	-0.39 (inactive)	3190
CCCCCCn1c(O)c(C=Nc2ccccc2N2CCOCC2)c(=O)[nH]c1=S	-0.37 (inactive)	3050
O=C(COc1ccccc1)N1CCN=C1c1ccccc1	-0.33 (inactive)	3190
CC1(C)Cc2c(ccc3ccccc23)C(c2cc3ccccc3oc2=O)=N1	-0.33 (inactive)	2730
COc1ccc2cc3cc(C(=O)NCc4ccccn4)oc3nc2c1	-0.38 (inactive)	3310
